Laboratory results as given in PMC3169519 (PLoS Computational Biology, 2011).
Read-outs that look alike come from different tables or passages of the source.

Legend:
[1] = target: T1, TOP1 (Homo sapiens, UniProt P11387); assay: DNA-bound TOP1 (Topo I Link Kit) after CPT11 exposure of synchronized cells; format: cell-based; conditions: synchronized Caco-2 cells
T1 construct: endogenous in cells; host or cells: Caco-2 (ATCC)
T1 sequence (P11387 1-765): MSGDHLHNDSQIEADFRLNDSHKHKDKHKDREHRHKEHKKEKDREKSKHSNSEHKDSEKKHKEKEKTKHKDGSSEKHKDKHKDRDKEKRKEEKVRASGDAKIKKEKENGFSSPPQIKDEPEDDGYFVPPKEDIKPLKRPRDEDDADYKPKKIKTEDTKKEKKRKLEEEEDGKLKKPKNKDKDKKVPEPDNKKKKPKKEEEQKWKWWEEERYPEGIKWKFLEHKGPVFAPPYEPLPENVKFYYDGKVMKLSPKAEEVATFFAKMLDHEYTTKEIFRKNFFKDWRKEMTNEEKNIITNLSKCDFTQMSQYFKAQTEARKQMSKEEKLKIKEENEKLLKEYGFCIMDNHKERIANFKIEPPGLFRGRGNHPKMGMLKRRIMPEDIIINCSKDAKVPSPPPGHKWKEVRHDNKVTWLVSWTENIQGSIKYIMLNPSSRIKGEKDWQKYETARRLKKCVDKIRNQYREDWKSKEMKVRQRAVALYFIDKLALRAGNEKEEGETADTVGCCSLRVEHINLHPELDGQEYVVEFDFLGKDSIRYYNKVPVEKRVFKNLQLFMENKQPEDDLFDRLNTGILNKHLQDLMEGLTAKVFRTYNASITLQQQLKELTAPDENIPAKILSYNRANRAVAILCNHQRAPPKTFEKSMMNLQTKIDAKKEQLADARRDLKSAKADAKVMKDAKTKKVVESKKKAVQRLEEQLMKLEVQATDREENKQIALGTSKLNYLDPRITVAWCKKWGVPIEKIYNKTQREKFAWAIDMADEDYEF
Procedure: The Caco-2 cell line was obtained from the American Type Culture Collection (Rockville, MD). Cells were grown in Dulbecco's modified Eagle's: Ham F12 medium (1∶1) supplemented with penicillin ([…]), streptomycin ( [drawing 195] ), glutamine (2 mM) (Fischer Scientific, Paris, France) and 10% of Fetal Bovine Serum (FBS) (Dutscher, Paris, France). They were maintained in a humidified atmosphere containing 5% [drawing 196] at [drawing 197] . Experiments were performed four days after confluence. CPT11 was purchased from Pfizer (Paris, France). For transport inhibition studies, non-synchronized cells were pre-incubated with verapamil, a non specific inhibitor of ABC transporters ( [drawing 198] for 24 h; Sigma Aldrich, Paris, France). […] Cell synchronization was performed by a serum shock which consisted in a 2-hour exposure to serum rich medium (DMEM:F12 containing 50% FBS). The beginning of the serum shock defined Circadian Time 0 (CT 0).
The Topo I Link Kit (TopoGen, Port Orange, FL) was used to quantify the amount of TOP1 linked on DNA [56]. […] Fractions of [drawing 208] were removed from the top of the gradient, and an aliquot of each fraction ( [drawing 209] ) was diluted (1/5) and quantified at 260 nm with spectrophotometer (Eppendorf, Paris, France). […] Chemoluminescence signals were detected with Las4000 camera and quantified with ImageJ software. […]

[2] = test system: CESs; conditions: cited from earlier work
[3] = cancer patients, dumbbell delivery scheme over 6h; cited from earlier work

SMILES: CCc1c2c(nc3ccc(OC(=O)N4CCC(N5CCCCC5)CC4)cc13)-c1cc3c(c(=O)n1C2)COC(=O)[C@]3(O)CC [CPT11, irinotecan]
- DNA-bound TOP1 protein amount, % of TOP1 total protein quantity ([1]; 30 min CPT11 exposure at CT14): 47%
- DNA-bound TOP1 protein amount, % of TOP1 total protein quantity ([1]; 30 min CPT11 exposure at CT28): 35.5%
- Kces ([2]; [CES]=1.42 µM): 53 µM
- Kces ([2]; [CES]=2.03 µM): 53 µM
- Vces ([2]; [CES]=2.03 µM): 0.714 µM/h
- time CPT11 circulating [3]: approximately 12 h
